Results as given in patent publication US20080107625A1, “Inhibitors of Hepatitis C Virus” (Bristol-Myers Squibb Company, priority 2006, published 2008).

Compound `CC(C)(C)OC(=O)N[C@H]1CCCOC/C=C\[C@@H]2C[C@@]2(C(=O)NS(=O)(=O)C2CC2)NC(=O)[C@@H]2C[C@@H](OCc3ccccc3)CN2C1=O` [Compound 5, (1S,4R,6S,14S,18R,7-cis)-18-benzyloxy-14-tert-butoxycarbonylamino-4-cyclopropanesulfonylaminocarbonyl-2,15-dioxo-3,16-diaza-10-oxatricyclo[14.3.0.04,6]nonadec-7-ene] has a melting point of 147 to 149 °C.
